Assay results published in PubChem BioAssay AID1963426 (Molecular Pharmacology Branch, DTP, NCI, 2024).
“And” between values parts separate entries of the source, which are not always exact repeats. Equal entries are not always repeated. Each block holds one compound with its values, some of them ahead of it.

Tested on: 186277-243-T-J2-PDC complex spheroid growth, % test/control
Experiment: Anticancer human tumor 186277-243-T-J2-PDC patient-derived colon adenocarcinoma cell line growth inhibition [Asc]
Settings: for viability, T/C: stronger effect = lower value
Procedure, shortened: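 Complex solid-tumor spheroids incorporating human endothelial and mesenchymal stem cells received single agents or combinations over half-log dilution ranges anchored to clinical Cmax.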

[1] = curve of first compound, second compound 0.03 µM
[2] = curve of first compound, second compound 0.0949 µM
[3] = curve of first compound, second compound 0.3 µM
[4] = curve of first compound, second compound 0.949 µM
[5] = curve of first compound, second compound 3 µM
[6] = second compound 0.03 µM, first compound 0.0316 µM
[7] = second compound 0.03 µM, first compound 0.1 µM
[8] = second compound 0.03 µM, first compound 0.316 µM
[9] = second compound 0.03 µM, first compound 1 µM
[10] = second compound 0.03 µM, first compound 3.16 µM
[11] = second compound 0.03 µM, first compound 10 µM
[12] = second compound 0.0949 µM, first compound 0.0316 µM
[13] = second compound 0.0949 µM, first compound 0.1 µM
[14] = second compound 0.0949 µM, first compound 0.316 µM
[15] = second compound 0.0949 µM, first compound 1 µM
[16] = second compound 0.0949 µM, first compound 3.16 µM
[17] = second compound 0.0949 µM, first compound 10 µM
[18] = second compound 0.3 µM, first compound 0.0316 µM
[19] = second compound 0.3 µM, first compound 0.1 µM
[20] = second compound 0.3 µM, first compound 0.316 µM
[21] = second compound 0.3 µM, first compound 1 µM
[22] = second compound 0.3 µM, first compound 3.16 µM
[23] = second compound 0.3 µM, first compound 10 µM
[24] = second compound 0.949 µM, first compound 0.0316 µM
[25] = second compound 0.949 µM, first compound 0.1 µM
[26] = second compound 0.949 µM, first compound 0.316 µM
[27] = second compound 0.949 µM, first compound 1 µM
[28] = second compound 0.949 µM, first compound 3.16 µM
[29] = second compound 0.949 µM, first compound 10 µM
[30] = second compound 3 µM, first compound 0.0316 µM
[31] = second compound 3 µM, first compound 0.1 µM
[32] = second compound 3 µM, first compound 0.316 µM
[33] = second compound 3 µM, first compound 1 µM
[34] = second compound 3 µM, first compound 3.16 µM
[35] = second compound 3 µM, first compound 10 µM
[36] = curve of first compound, second compound 0.1 µM
[37] = curve of first compound, second compound 0.316 µM
[38] = curve of first compound, second compound 1 µM
[39] = second compound 0.1 µM, first compound 0.0316 µM
[40] = second compound 0.1 µM, first compound 0.1 µM
[41] = second compound 0.316 µM, first compound 0.0316 µM
[42] = second compound 0.316 µM, first compound 0.1 µM
[43] = second compound 1 µM, first compound 0.0316 µM
[44] = second compound 1 µM, first compound 0.1 µM
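Note: spheroids exposed to agents for 7 days.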
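Throughout, for viability, T/C: 100% = DMSO vehicle control wells.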

IC50 [1]: > 10000 nM | IC50 [2]: > 10000 nM | IC50 [3]: > 10000 nM | IC50 [4]: 596 nM | IC50 [5]: < 31.6 nM
SMILES: O=C(c1cc(Cc2n[nH]c(=O)c3ccccc23)ccc1F)N1CCN(C(=O)C2CC2)CC1 + CCN1C(C(=O)NC23CCC(C(=O)O)(CC2)CC3)C(c2cccc(Cl)c2F)C2(C(=O)Nc3cc(Cl)ccc32)C12CCCCC2
viability, T/C [6]: 120% | viability, T/C [7]: 135% | viability, T/C [8]: 102% | viability, T/C [9]: 99% | viability, T/C [10]: 94.2% | viability, T/C [11]: 82.4% | viability, T/C [12]: 90% | viability, T/C [13]: 95.1% | viability, T/C [14]: 93.9% | viability, T/C [15]: 85.6% | viability, T/C [16]: 91.6% | viability, T/C [17]: 79.4% | viability, T/C [18]: 77.8% | viability, T/C [19]: 90.8% | viability, T/C [20]: 72.1% | viability, T/C [21]: 67.2% | viability, T/C [22]: 62.1% | viability, T/C [23]: 60.8% | viability, T/C [24]: 54.3% | viability, T/C [25]: 51.7% | viability, T/C [26]: 54.6% | viability, T/C [27]: 45.7% | viability, T/C [28]: 47% | viability, T/C [29]: 40.9% | viability, T/C [30]: 31.8% | viability, T/C [31]: 33.5% | viability, T/C [32]: 29.9% | viability, T/C [33]: 32.4% | viability, T/C [34]: 30.2% | viability, T/C [35]: 26.5%

IC50 [1]: > 10000 nM | IC50 [2]: > 10000 nM | IC50 [3]: > 10000 nM | IC50 [4]: 3740 nM | IC50 [5]: < 31.6 nM
SMILES: C=CC(=O)N1CCN(c2nc(=O)n(-c3c(C)ccnc3C(C)C)c3nc(-c4c(O)cccc4F)c(F)cc23)C(C)C1 (stereo not drawn) + CCN1C(C(=O)NC23CCC(C(=O)O)(CC2)CC3)C(c2cccc(Cl)c2F)C2(C(=O)Nc3cc(Cl)ccc32)C12CCCCC2
viability, T/C [6]: 124% | viability, T/C [7]: 119% | viability, T/C [8]: 119% | viability, T/C [9]: 127% | viability, T/C [10]: 122% | viability, T/C [11]: 125% | viability, T/C [12]: 119% | viability, T/C [13]: 92.9% | viability, T/C [14]: 112% | viability, T/C [15]: 94.5% | viability, T/C [16]: 113% | viability, T/C [17]: 103% | viability, T/C [18]: 74.9% | viability, T/C [19]: 82.2% | viability, T/C [20]: 81.2% | viability, T/C [21]: 79.4% | viability, T/C [22]: 74.7% | viability, T/C [23]: 69.1% | viability, T/C [24]: 62.5% | viability, T/C [25]: 59.3% | viability, T/C [26]: 58.1% | viability, T/C [27]: 57.3% | viability, T/C [28]: 51.4% | viability, T/C [29]: 42% | viability, T/C [30]: 33.2% | viability, T/C [31]: 36% | viability, T/C [32]: 35.9% | viability, T/C [33]: 36.5% | viability, T/C [34]: 41% | viability, T/C [35]: 32.7%

IC50 [36]: > 100 nM | IC50 [37]: > 100 nM | IC50 [38]: > 100 nM | IC50 (curve of first compound, second compound 3.16 µM): > 100 nM | IC50 (curve of first compound, second compound 10 µM): 75 nM
SMILES: Cn1ncnc1[C@H]1c2n[nH]c(=O)c3cc(F)cc(c23)N[C@@H]1c1ccc(F)cc1 + Cc1c(S(C)(=O)=O)c(-c2cc(F)cc(N3CCN(c4ccc(NS(=O)(=O)c5ccc(NC(CCN6CCC(C(=O)OCCCP(=O)(O)O)CC6)CSc6ccccc6)c(S(=O)(=O)C(F)(F)F)c5)cc4)CC3)c2)c(-c2ccc(Cl)cc2)n1C(C)C
viability, T/C (second compound 0.1 µM, first compound 0.000316 µM): 98.4% | viability, T/C (second compound 0.1 µM, first compound 0.001 µM): 85.5% | viability, T/C (second compound 0.1 µM, first compound 0.00316 µM): 101% | viability, T/C (second compound 0.1 µM, first compound 0.01 µM): 101% | viability, T/C [39]: 108% | viability, T/C [40]: 99.1% | viability, T/C (second compound 0.316 µM, first compound 0.000316 µM): 111% | viability, T/C (second compound 0.316 µM, first compound 0.001 µM): 95.5% | viability, T/C (second compound 0.316 µM, first compound 0.00316 µM): 114% | viability, T/C (second compound 0.316 µM, first compound 0.01 µM): 111% | viability, T/C [41]: 98.3% | viability, T/C [42]: 86.8% | viability, T/C (second compound 1 µM, first compound 0.000316 µM): 100% | viability, T/C (second compound 1 µM, first compound 0.001 µM): 103% | viability, T/C (second compound 1 µM, first compound 0.00316 µM): 103% | viability, T/C (second compound 1 µM, first compound 0.01 µM): 91.5% | viability, T/C [43]: 70% | viability, T/C [44]: 63.8% | viability, T/C (second compound 3.16 µM, first compound 0.000316 µM): 106% | viability, T/C (second compound 3.16 µM, first compound 0.001 µM): 99% | viability, T/C (second compound 3.16 µM, first compound 0.00316 µM): 113% | viability, T/C (second compound 3.16 µM, first compound 0.01 µM): 97.9% | viability, T/C (second compound 3.16 µM, first compound 0.0316 µM): 66% | viability, T/C (second compound 3.16 µM, first compound 0.1 µM): 56.1% | viability, T/C (second compound 10 µM, first compound 0.000316 µM): 95.4% | viability, T/C (second compound 10 µM, first compound 0.001 µM): 95.9% | viability, T/C (second compound 10 µM, first compound 0.00316 µM): 116% | viability, T/C (second compound 10 µM, first compound 0.01 µM): 96.1% | viability, T/C (second compound 10 µM, first compound 0.0316 µM): 70.5% | viability, T/C (second compound 10 µM, first compound 0.1 µM): 43.2%

IC50 (curve of compound): > 3000 nM
SMILES: Cc1nc(N2CCC3(CC2)COC(C)C3N)c(CO)nc1Sc1ccnc(N)c1Cl (stereo not drawn)
viability, T/C (compound 0.00949 µM): 92.7% and 111% and 93.3% | viability, T/C (compound 0.03 µM): 89.2% and 95.6% and 104% | viability, T/C (compound 0.0949 µM): 81% and 91.5% and 95.9% | viability, T/C (compound 0.3 µM): 102% and 103% and 96.9% | viability, T/C (compound 0.949 µM): 102% and 114% and 95% | viability, T/C (compound 3 µM): 109% (2×) and 93.4%

IC50 (compound alone, run of 09/27/2022): > 10000 nM
SMILES: Cc1c(S(C)(=O)=O)c(-c2cc(F)cc(N3CCN(c4ccc(NS(=O)(=O)c5ccc(NC(CCN6CCC(C(=O)OCCCP(=O)(O)O)CC6)CSc6ccccc6)c(S(=O)(=O)C(F)(F)F)c5)cc4)CC3)c2)c(-c2ccc(Cl)cc2)n1C(C)C (stereo not drawn)

IC50 (curve of first compound, second compound 0.01 µM): 571 nM | IC50 (curve of first compound, second compound 0.0316 µM): 560 nM | IC50 [36]: 452 nM | IC50 [37]: 313 nM | IC50 [38]: 230 nM
SMILES: C#Cc1c(F)ccc2cc(O)cc(-c3ncc4c(N5CC6CCC(C5)N6)nc(OCC56CCCN5CC(F)C6)nc4c3F)c12 (stereo not drawn) + CNC(C)C(=O)NC1CN(S(=O)(=O)c2cccc(S(=O)(=O)N3CCC4CCC(C(=O)NC(c5ccccc5)c5ccccc5)N4C(=O)C(NC(=O)C(C)NC)C3)c2)CCC2CCC(C(=O)NC(c3ccccc3)c3ccccc3)N2C1=O
viability, T/C (second compound 0.01 µM, first compound 0.0316 µM): 110% | viability, T/C (second compound 0.01 µM, first compound 0.1 µM): 110% | viability, T/C (second compound 0.01 µM, first compound 0.316 µM): 68.6% | viability, T/C (second compound 0.01 µM, first compound 1 µM): 31.6% | viability, T/C (second compound 0.01 µM, first compound 3.16 µM): 18.1% | viability, T/C (second compound 0.01 µM, first compound 10 µM): 10.9% | viability, T/C (second compound 0.0316 µM, first compound 0.0316 µM): 119% | viability, T/C (second compound 0.0316 µM, first compound 0.1 µM): 98.4% | viability, T/C (second compound 0.0316 µM, first compound 0.316 µM): 72.2% | viability, T/C (second compound 0.0316 µM, first compound 1 µM): 27.7% | viability, T/C (second compound 0.0316 µM, first compound 3.16 µM): 16.8% | viability, T/C (second compound 0.0316 µM, first compound 10 µM): 9.61% | viability, T/C [39]: 111% | viability, T/C [40]: 99.9% | viability, T/C (second compound 0.1 µM, first compound 0.316 µM): 61% | viability, T/C (second compound 0.1 µM, first compound 1 µM): 24.6% | viability, T/C (second compound 0.1 µM, first compound 3.16 µM): 13.2% | viability, T/C (second compound 0.1 µM, first compound 10 µM): 8.58% | viability, T/C [41]: 128% | viability, T/C [42]: 90% | viability, T/C (second compound 0.316 µM, first compound 0.316 µM): 53.2% | viability, T/C (second compound 0.316 µM, first compound 1 µM): 18.4% | viability, T/C (second compound 0.316 µM, first compound 3.16 µM): 10.1% | viability, T/C (second compound 0.316 µM, first compound 10 µM): 8.04% | viability, T/C [43]: 123% | viability, T/C [44]: 91.4% | viability, T/C (second compound 1 µM, first compound 0.316 µM): 34% | viability, T/C (second compound 1 µM, first compound 1 µM): 11.7% | viability, T/C (second compound 1 µM, first compound 3.16 µM): 8.66% | viability, T/C (second compound 1 µM, first compound 10 µM): 6.64%
